Test results as given in US11548850B2, “Development of a cofilin inhibitor for the treatment of hemorrhagic brain injury-induced neuroinflammation” (The University of Toledo, priority 2019, dated 2023).

Target: cofilin (Homo sapiens, UniProt P23528)
Experiment: Cofilin inhibition by the compound still protected on one side (no method given)
Details: one side of the Formula I structure still protected (TBS)

Chain of cofilin (P23528 whole entry): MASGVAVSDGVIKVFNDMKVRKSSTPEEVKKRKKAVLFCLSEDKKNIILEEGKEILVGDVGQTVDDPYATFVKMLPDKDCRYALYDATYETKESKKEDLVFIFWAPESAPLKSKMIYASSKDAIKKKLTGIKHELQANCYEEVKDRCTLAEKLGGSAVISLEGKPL

## CC(C)(C)c1ccc(O)c(CN(Cc2cc(C(C)(C)C)ccc2O[Si](C)(C)C(C)(C)C)C2CCC(NC(N)=O)CC2)c1 (stereo not shown) [SZ-2]
  cofilin inhibition: still works to inhibit cofilin
